Data as given in ChEMBL document CHEMBL1201862, “PubChem BioAssay data set” (2004).
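Following 48 hours of exposure in 96-well plates, responses at five concentrations were used to interpolate endpoints linearly. GI50 marks 50% less growth.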 Active and inactive are the calls of the source. Cut-off read from the data, not from the text of the source: active = GI50 up to about 1.1 µM and inactive = higher.

Tests used:
Assay in all cases: inhibition of tumour cell growth, NCI panel, 48 h
HCC 2998 = system: HCC 2998
RXF 393 = system: RXF 393
SNB-19 = system: SNB-19
SR = system: SR
IGROV-1 = system: IGROV-1
UACC-257 = system: UACC-257
KM-20L2 = system: KM-20L2
OVCAR-4 = system: OVCAR-4
CCRF-CEM = system: CCRF-CEM
Malme-3M = system: Malme-3M
HCT-15 = system: HCT-15
LOX IMVI = system: LOX IMVI
OVCAR-5 = system: OVCAR-5
ACHN = system: ACHN
RXF 631 = system: RXF 631
HT-29 = system: HT-29
MOLT-4 = system: MOLT-4
NCI-H226 = system: NCI-H226
UO-31 = system: UO-31
M14 = system: M14
M19-MEL = system: M19-MEL
HOP-92 = system: HOP-92
SF-268 = system: SF-268
SF-295 = system: SF-295
LXFL 529 = system: LXFL 529
RPMI-8226 = system: RPMI-8226
HOP-18 = system: HOP-18
NCI-H460 = system: NCI-H460
TK-10 = system: TK-10
SK-MEL-28 = system: SK-MEL-28
SK-OV-3 = system: SK-OV-3
A549 = system: A549
KM12 = system: KM12
HL-60 = system: HL-60
DMS-114 = system: DMS-114
K562 = system: K562
786-0 = system: 786-0
SNB-78 = system: SNB-78
SNB-75 = system: SNB-75
SN12C = system: SN12C
A498 = system: A498
NCI-H522 = system: NCI-H522
EKVX = system: EKVX
CAKI-1 = system: CAKI-1
NCI-H23 = system: NCI-H23
OVCAR-8 = system: OVCAR-8
XF498 = system: XF498
DLD-1 = system: DLD-1
SW-620 = system: SW-620
U-251 = system: U-251
DMS-273 = system: DMS-273
HOP-62 = system: HOP-62
HCT-116 = system: HCT-116
SK-MEL-2 = system: SK-MEL-2
SF-539 = system: SF-539
UACC-62 = system: UACC-62
SK-MEL-5 = system: SK-MEL-5
OVCAR-3 = system: OVCAR-3
COLO 205 = system: COLO 205

Measured: GI50

CN(C)C(=N/O)/C(=N\O)N(C)C
> 100 µM: HCT-15
inactive: HCC 2998 > 100 µM | RXF 393 > 100 µM | SNB-19 > 100 µM | SR > 100 µM | IGROV-1 > 100 µM | UACC-257 > 100 µM | KM-20L2 > 100 µM | OVCAR-4 > 100 µM | CCRF-CEM > 100 µM | Malme-3M > 100 µM | LOX IMVI > 100 µM | OVCAR-5 > 100 µM | ACHN > 100 µM | RXF 631 > 100 µM | HT-29 > 100 µM | MOLT-4 > 100 µM | NCI-H226 15.6 µM | UO-31 > 100 µM | M14 > 100 µM | M19-MEL > 100 µM | HOP-92 > 100 µM | SF-268 > 100 µM | SF-295 > 100 µM | LXFL 529 > 100 µM | RPMI-8226 > 100 µM | HOP-18 > 100 µM | NCI-H460 > 100 µM | TK-10 > 100 µM | SK-MEL-28 > 100 µM | SK-OV-3 > 100 µM | A549 > 100 µM | KM12 > 100 µM | HL-60 > 100 µM | DMS-114 > 100 µM | K562 > 100 µM | 786-0 > 100 µM | SNB-78 > 100 µM | SNB-75 > 100 µM | SN12C > 100 µM | A498 > 100 µM | NCI-H522 > 100 µM | EKVX > 100 µM | CAKI-1 > 100 µM | NCI-H23 > 100 µM | OVCAR-8 > 100 µM | XF498 > 100 µM | DLD-1 > 100 µM | SW-620 > 100 µM | U-251 > 100 µM | DMS-273 > 100 µM | HOP-62 > 100 µM | HCT-116 > 100 µM | SK-MEL-2 > 100 µM | SF-539 > 100 µM | UACC-62 > 100 µM

COC(=O)C(C(=O)c1ccccc1)C(C(=O)C(=O)Nc1ccc(OC)cc1OC)C(=O)C(=O)c1ccc(C)cc1 (centres undefined)
inactive: HCC 2998 > 100 µM | RXF 393 > 100 µM | SNB-19 > 100 µM | SR > 100 µM | IGROV-1 > 100 µM | UACC-257 > 100 µM | KM-20L2 > 100 µM | OVCAR-4 > 100 µM | CCRF-CEM > 100 µM | Malme-3M > 100 µM | SK-MEL-5 > 100 µM | LOX IMVI > 100 µM | OVCAR-5 > 100 µM | ACHN > 100 µM | RXF 631 > 100 µM | HT-29 > 100 µM | MOLT-4 > 100 µM | NCI-H226 > 100 µM | UO-31 > 100 µM | M14 > 100 µM | M19-MEL > 100 µM | SF-268 > 100 µM | SF-295 > 100 µM | LXFL 529 > 100 µM | RPMI-8226 > 100 µM | OVCAR-3 > 100 µM | HOP-18 > 100 µM | NCI-H460 > 100 µM | COLO 205 > 100 µM | TK-10 > 100 µM | SK-MEL-28 > 100 µM | SK-OV-3 > 100 µM | A549 > 100 µM | KM12 > 100 µM | HL-60 > 100 µM | DMS-114 > 100 µM | K562 > 100 µM | 786-0 > 100 µM | SNB-78 > 100 µM | SNB-75 > 100 µM | SN12C > 100 µM | A498 > 100 µM | NCI-H522 > 100 µM | EKVX > 100 µM | CAKI-1 > 100 µM | NCI-H23 > 100 µM | OVCAR-8 > 100 µM | XF498 > 100 µM | DLD-1 > 100 µM | SW-620 > 100 µM | U-251 > 100 µM | DMS-273 > 100 µM | HOP-62 > 100 µM | HCT-116 > 100 µM | SK-MEL-2 > 100 µM | SF-539 > 100 µM | UACC-62 > 100 µM
> 100 µM: HCT-15
